Results: patent publication US20250197658A1, “ANTIOXIDANT STABILIZERS FOR DIRECT FABRICATION OF ORTHODONTIC APPLIANCES” (Align Technology, Inc., priority 2023, published 2025)

Assay: Photoinitiator stability: concentrations in recovered resin composition after printing cycles
Assay type: physicochemical
Settings: for change of concentration in recovered resin composition: with increasing printing cycles

Cc1cc(C)c(C(=O)P(=O)(C(=O)c2c(C)cc(C)cc2C)c2ccccc2)c(C)c1 [BAPO, phenylbis(2,4,6-trimethylbenzoyl) phosphine oxide]
concentration in recovered resin composition (1 printing cycle): 0.98 wt % | concentration in recovered resin composition (2 printing cycles): 1 wt % | concentration in recovered resin composition (4 printing cycles): 0.98 wt % | concentration in recovered resin composition (6 printing cycles): 0.99 wt % | change of concentration in recovered resin composition: remained constant

Vitamin E
concentration in recovered resin composition (1 printing cycle): 0.0077 wt % | concentration in recovered resin composition (2 printing cycles): 0.0063 wt % | concentration in recovered resin composition (4 printing cycles): 0.0043 wt % | concentration in recovered resin composition (6 printing cycles): 0.0026 wt % | change of concentration in recovered resin composition: decreased
